Laboratory results as given in US12522612B2, “PDE4 inhibitors, pharmaceutical compositions, and therapeutic applications” (BioTheryX, Inc., priority 2019, dated 2026).

Columns and labels:
TNF-α = test: Cell-based TNF-α inhibition assay in LPS-induced PBMCs (Meso Scale); settings: PBMC, PBMCs pretreated 1 h, LPS 100 ng/mL 18-24 h, relative to stimulated DMSO control; for inhibition at 1 µM: compound concentration 1 μM; for inhibition at 0.1 µM: compound concentration 0.1 μM
Outline: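 Thawed human PBMCs (200,000/well) in RPMI/10% FBS were pretreated with compound or DMSO for 1 h, then stimulated with LPS (100 ng/mL) for 18-24 h. Supernatant TNF-α was measured by Meso Scale; activity expressed as percent of stimulated DMSO control (percent inhibition).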

PDE4B = molecular target: T1, PDE4B (Homo sapiens, UniProt Q07343); test: Protein degradation assay in A549 cells, western blot, PDE4B; type: cell-based; settings: 24 h treatment, read-out: PDE4B degradation relative to DMSO
T1 construct: Whole cell extracts were prepared using an immunoprecipitation (IP) lysis buffer; endogenous in cells; host or cells: A549
Method: A549 cells were grown in RPMI 1640 media supplemented with 10% fetal bovine serum, streptomycin, and penicillin. The cells were plated in 6-well plates in the growth media. The next day, fresh growth media were replaced on the cells. The cells were then treated with a compound for 24 h at predetermined concentrations. Whole cell extracts were prepared using an immunoprecipitation (IP) lysis buffer. Briefly, the cells were washed once in PBS, and the cell pellets were resuspended in the IP lysis buffer and incubated for 15 min on ice. Cells debris was removed by centrifugation and the cleared whole cell lysates were transferred to new tubes for further analysis.
For a western blot analysis, the whole cell protein extracts were separated on 4-12% SDS-polyacrylamide gels, transferred to nitrocellulose, and probed with primary antibodies. Membranes were subsequently washed and probed with IRDYE® secondary antibodies. The signals were detected using an ODYSSEY® Imaging System. The antibodies used in the assay included anti-PDE4B antibody; anti-PDE4D antibodies (top, bottom, and short isoform); β-actin mouse monoclonal antibody; IRDYE® 680RD goat anti-rabbit antibody; and IRDYE® 800CW goat anti-mouse antibody. Compounds B2 to B4, B18, B49 to B52, B76, B77, B79, B81 to B83, B88, B89, and B91 were determined to be able to degradate PDE4B as high as about 50% relative to DMSO.

T1 sequence (Q07343 whole entry): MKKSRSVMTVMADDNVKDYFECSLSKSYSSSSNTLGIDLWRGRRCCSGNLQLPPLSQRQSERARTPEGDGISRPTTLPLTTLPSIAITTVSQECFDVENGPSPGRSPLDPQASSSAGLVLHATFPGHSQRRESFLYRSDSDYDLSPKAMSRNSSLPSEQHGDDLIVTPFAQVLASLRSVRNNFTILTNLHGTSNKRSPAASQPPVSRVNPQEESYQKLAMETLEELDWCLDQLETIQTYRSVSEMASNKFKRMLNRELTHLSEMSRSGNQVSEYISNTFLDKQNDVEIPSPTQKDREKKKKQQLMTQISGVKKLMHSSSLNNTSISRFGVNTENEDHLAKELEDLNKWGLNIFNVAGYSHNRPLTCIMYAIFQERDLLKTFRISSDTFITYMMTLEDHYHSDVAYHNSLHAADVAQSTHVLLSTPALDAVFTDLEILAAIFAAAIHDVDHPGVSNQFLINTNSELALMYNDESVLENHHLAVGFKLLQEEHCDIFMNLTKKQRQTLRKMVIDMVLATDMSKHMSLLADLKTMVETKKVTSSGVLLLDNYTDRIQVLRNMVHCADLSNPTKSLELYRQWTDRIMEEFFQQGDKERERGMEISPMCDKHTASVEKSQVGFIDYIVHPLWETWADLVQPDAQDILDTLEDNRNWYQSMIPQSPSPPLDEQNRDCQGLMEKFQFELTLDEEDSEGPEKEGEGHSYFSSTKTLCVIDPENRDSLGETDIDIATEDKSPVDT

Row | Dmax (PDE4B) | Compound | inhibition at 1 µM (TNF-α) | inhibition at 0.1 µM (TNF-α)
1 | ≤ 50% | CCOc1cc([C@@H](CS(C)(=O)=O)N2C(=O)c3cc(CCCCCCCN4CCC(c5cc(F)cc6c5CN(C5CCC(=O)NC5=O)C6=O)CC4)cc(NC(C)=O)c3C2=O)ccc1OC (stereo partly drawn) [Compound B2, N-(6-(7-(4-(2-(2,6-dioxopiperidin-3-yl)-6-fluoro-1-oxoisoindolin-4-yl)piperidin-1-yl)heptyl)-2-((S)-1-(3-ethoxy-4-methoxyphenyl)-2-(methylsulfonyl)ethyl)-1,3-dioxoisoindolin-4-yl)acetamide] | ≥ 60% | 
2 | ≤ 50% | O=C1CCC(N2Cc3c(cc(F)cc3C3CCN(CCCCCCCN(C(=O)c4ccc(OC(F)F)c(OCC5CC5)c4)c4c(Cl)cncc4Cl)CC3)C2=O)C(=O)N1 (stereo not drawn) [Compound B3, 3-(Cyclopropylmethoxy)-N-(3,5-dichloropyridin-4-yl)-4-(difluoromethoxy)-N-(7-(4-(2-(2,6-dioxopiperidin-3-yl)-6-fluoro-1-oxoisoindolin-4-yl)piperidin-1-yl)heptyl)benzamide] | < 20% | < 20%
3 | ≤ 50% | O=C1CCC(N2Cc3c(cc(F)cc3C3CCN(CCCCCCCOc4cc(C(=O)Nc5c(Cl)cncc5Cl)ccc4OC(F)F)CC3)C2=O)C(=O)N1 (stereo not drawn) [Compound B4, N-(3,5-dichloropyridin-4-yl)-4-(difluoromethoxy)-3-((7-(4-(2-(2,6-dioxopiperidin-3-yl)-6-fluoro-1-oxoisoindolin-4-yl)piperidin-1-yl)heptyl)oxy)benzamide] | ≥ 60% | ≥ 60%
4 | ≤ 50% | O=C1CCC(N2Cc3c(C#CC4CCN(C(=O)CCCCOc5cc(C(=O)Nc6c(Cl)cncc6Cl)ccc5OC(F)F)CC4)cccc3C2=O)C(=O)N1 (stereo not drawn) [Compound B18, N-(3,5-Dichloropyridin-4-yl)-4-(difluoromethoxy)-3-((5-(4-((2-(2,6-dioxopiperidin-3-yl)-1-oxoisoindolin-4-yl)ethynyl)piperidin-1-yl)-5-oxopentyl)oxy)benzamide] | ≥ 60% | ≥ 60%
5 | ≤ 50% | COc1ccc(N2Cc3ccccc3C2=O)cc1OCCCCCCCN1CCC(c2cc(F)cc3c2CN(C2CCC(=O)NC2=O)C3=O)CC1 (stereo not drawn) [Compound B49, 3-(6-Fluoro-4-(1-(7-(2-methoxy-5-(1-oxoisoindolin-2-yl)phenoxy)heptyl)piperidin-4-yl)-1-oxoisoindolin-2-yl)piperidine-2,6-dione] | < 20% | 
6 | ≤ 50% | O=C1CCC(N2Cc3c(cc(F)cc3C3CCN(CCCCCCCOc4ccc(N5Cc6ccccc6C5=O)cc4OC4CCCC4)CC3)C2=O)C(=O)N1 (stereo not drawn) [Compound B50, 3-(4-(1-(7-(2-(Cyclopentyloxy)-4-(1-oxoisoindolin-2-yl)phenoxy)heptyl)piperidin-4-yl)-6-fluoro-1-oxoisoindolin-2-yl)piperidine-2,6-dione] | < 20% | 
7 | ≤ 50% | COc1ccc(N2C(=O)c3ccccc3C2=O)cc1OCCCCCCCN1CCC(c2cc(F)cc3c2CN(C2CCC(=O)NC2=O)C3=O)CC1 (stereo not drawn) [Compound B51, 2-(3-((7-(4-(2-(2,6-Dioxopiperidin-3-yl)-6-fluoro-1-oxoisoindolin-4-yl)piperidin-1-yl)heptyl)oxy)-4-methoxyphenyl)isoindoline-1,3-dione] | 20 to 40% | 
8 | ≤ 50% | COc1ccc(N2C(=O)c3ccc(N)cc3C2=O)cc1OCCCCCCCN1CCC(c2cc(F)cc3c2CN(C2CCC(=O)NC2=O)C3=O)CC1 (stereo not drawn) [Compound B52, 5-Amino-2-(3-((7-(4-(2-(2,6-dioxopiperidin-3-yl)-6-fluoro-1-oxoisoindolin-4-yl)piperidin-1-yl)heptyl)oxy)-4-methoxyphenyl)isoindoline-1,3-dione] | < 20% | 
9 | ≤ 50% | CCOc1cc([C@@H](CS(C)(=O)=O)N2C(=O)c3cc(CCCCCCCC4CCN(c5cccc6c5C(=O)N(C5CCC(=O)NC5=O)C6=O)CC4)cc(NC(C)=O)c3C2=O)ccc1OC (stereo partly drawn) [Compound B88, N-(6-(7-(1-(2-(2,6-Dioxopiperidin-3-yl)-1,3-dioxoisoindolin-4-yl)piperidin-4-yl)heptyl)-2-((S)-1-(3-ethoxy-4-methoxyphenyl)-2-(methylsulfonyl)ethyl)-1,3-dioxoisoindolin-4-yl)acetamide] |  | 
10 | ≤ 50% | O=C1CCC(N2Cc3c(cc(F)cc3C3CCN(CCCCCCCOc4ccc(N5Cc6sccc6C5=O)cc4OC4CCCC4)CC3)C2=O)C(=O)N1 (stereo not drawn) [Compound B91, 3-(4-(1-(7-(2-(Cyclopentyloxy)-4-(4-oxo-4,6-dihydro-5H-thieno[2,3-c]pyrrol-5-yl)phenoxy)heptyl)piperidin-4-yl)-6-fluoro-1-oxoisoindolin-2-yl)piperidine-2,6-dione] |  | 

Second part, the compound before the results:

Row | Compound | Dmax (PDE4B) | inhibition at 1 µM (TNF-α) | inhibition at 0.1 µM (TNF-α)
11 | CCOc1cc([C@@H](CS(C)(=O)=O)N2C(=O)c3cccc(NC(=O)CCCCCCCCN4CCC(c5cc6c(cc5F)C(=O)N(C5CCC(=O)NC5=O)C6)CC4)c3C2=O)ccc1OC (stereo partly drawn) [Compound B75, 9-(4-(2-(2,6-Dioxopiperidin-3-yl)-6-fluoro-1-oxoisoindolin-5-yl)piperidin-1-yl)-N-(2-((S)-1-(3-ethoxy-4-methoxyphenyl)-2-(methylsulfonyl)ethyl)-1,3-dioxoisoindolin-4-yl)nonanamide] |  | ≥ 60% | ≥ 60%
12 | CCOc1cc([C@@H](CS(C)(=O)=O)N2C(=O)c3cccc(NC(=O)CCCCNCc4ccc(OCc5scc6c5CN(C5CCC(=O)NC5=O)C6=O)cc4)c3C2=O)ccc1OC (stereo partly drawn) [Compound B78, 5-((4-((5-(2,6-Dioxopiperidin-3-yl)-4-oxo-5,6-dihydro-4H-thieno[3,4-c]pyrrol-1-yl)methoxy)benzyl)amino)-N-(2-((S)-1-(3-ethoxy-4-methoxyphenyl)-2-(methylsulfonyl)ethyl)-1,3-dioxoisoindolin-4-yl)pentanamide] |  | ≥ 60% | 
13 | COc1ccc(N2Cc3sccc3C2=O)cc1OCCCCCCCN1CCC(c2cc(F)cc3c2CN(C2CCC(=O)NC2=O)C3=O)CC1 (stereo not drawn) [Compound B80, 3-(6-Fluoro-4-(1-(7-(2-methoxy-5-(4-oxo-4,6-dihydro-5H-thieno[2,3-c]pyrrol-5-yl)phenoxy)heptyl)piperidin-4-yl)-1-oxoisoindolin-2-yl)piperidine-2,6-dione] |  | ≥ 60% | 
14 | O=C1CCC(N2Cc3c(NCCCOCCOCCOCCOc4ccc(C(=O)Nc5c(Cl)cncc5Cl)cc4OCC4CC4)cccc3C2=O)C(=O)N1 (stereo not drawn) [Compound B81, 3-(Cyclopropylmethoxy)-N-(3,5-dichloropyridin-4-yl)-4-(2-(2-(2-(3-((2-(2,6-dioxopiperidin-3-yl)-1-oxoisoindolin-4-yl)amino)propoxy)ethoxy)ethoxy)ethoxy)benzamide] | ≤ 50% |  | 
15 | O=C1CCC(N2Cc3c(cc(F)cc3C3CCN(CCCCCCCCCOc4ccc(C(=O)Nc5c(Cl)cncc5Cl)cc4OCC4CC4)CC3)C2=O)C(=O)N1 (stereo not drawn) [Compound B84, 3-(Cyclopropylmethoxy)-N-(3,5-dichloropyridin-4-yl)-4-((9-(4-(2-(2,6-dioxopiperidin-3-yl)-6-fluoro-1-oxoisoindolin-4-yl)piperidin-1-yl)nonyl)oxy)benzamide] |  | ≥ 60% | 
16 | CC(=O)NC(=O)C(C)N1Cc2c(cc(F)cc2C2CCN(CCCCCCCCCOc3cc(C(=O)Nc4c(Cl)cncc4Cl)ccc3OC(F)F)CC2)C1=O (stereo not drawn) [Compound B85, 3-((9-(4-(2-(1-Acetamido-1-oxopropan-2-yl)-6-fluoro-1-oxoisoindolin-4-yl)piperidin-1-yl)nonyl)oxy)-N-(3,5-dichloropyridin-4-yl)-4-(difluoromethoxy)benzamide] |  | 20 to 40% | 
17 | Cc1ncsc1-c1ccc(CNC(=O)[C@@H]2C[C@@H](O)CN2C(=O)[C@@H](NC(=O)CCCCCCCCOc2cc(C(=O)Nc3c(Cl)cncc3Cl)ccc2OCC2CC2)C(C)(C)C)cc1 [Compound B86, (2S,4R)-1-((S)-2-(9-(2-(Cyclopropylmethoxy)-5-((3,5-dichloropyridin-4-yl)carbamoyl)phenoxy)nonanamido)-3,3-dimethylbutanoyl)-4-hydroxy-N-(4-(4-methylthiazol-5-yl)benzyl)pyrrolidine-2-carboxamide] |  | ≥ 60% | 
18 | CCOc1cc([C@@H](CS(C)(=O)=O)N2C(=O)c3cccc(NC(=O)CCOCCOCCNc4cccc5c4C(=O)N(C4CCC(=O)NC4=O)C5=O)c3C2=O)ccc1OC (stereo partly drawn) [Compound B89, 3-(2-(2-((2-(2,6-Dioxopiperidin-3-yl)-1,3-dioxoisoindolin-4-yl)amino)ethoxy)ethoxy)-N-(2-((S)-1-(3-ethoxy-4-methoxyphenyl)-2-(methylsulfonyl)ethyl)-1,3-dioxoisoindolin-4-yl)propanamide] | ≤ 50% |  | 
